The record followed here is EP0256909B1, “N,N-bis-(4-fluorophenyl) carbamoyl acetohydroxamic acid and pharmaceutical composition containing it” (priority 1986, dated 1988).

Entries after “also recorded” stand apart in the source; their conditions may differ.

In series [1] the test system is souris. The experiment in a line: Interaction with barbital. To be noted: 128 et 512 mg/kg, barbital 220 mg/kg i.p. The format is in vivo. The method, then: Trente minutes après l'administration de CRL 41131, des lots de 10 souris reçoivent une injection intrapéritonéale de barbital (220 mg/kg).
The test system of series [2] is souris. In words: in vivo. To be noted: 24 h after administration. The method, then:
(§1) Le CRL 41131, en suspension dans une solution de gomme arabique à 5%, a été administré par voie intrapéritonéale sous un volume de 20 ml/kg chez la souris (mâle, NMRI, Evic Ceba) et de 5 ml/kg chez le rat (mâle, CD1, Sprague Dawley, Charles River).
(§2) Aussitôt après l'administration de CRL 41131, les souris groupées par lots de 10 sont placées dans des boîtes en Plexiglass (20 x 10 x 10 cm).
(§3) On note le nombre d'animaux morts, toutes les heures pendant 4 h et après 24, 48 et 72 h.
(§4) La toxicité du CRL 41131 est déterminée dans les mêmes conditions sur des lots de souris placées à raison d'une par boîte.

Series [3] is described as follows: in vivo. The note with it: mouse, in vivo, ip; for LD50 at 48 h: 48 h after administration; for LD50 at 72 h: 72 h after administration; for LD50 at 24 h: dose létale 50% (DL50), 24 h after administration; for selectivity ratio: rapport, LD50 ratio isolated/grouped mice (formula not readable). The method, then: as §1, §2, §3, §4

Usually LD50 stands for the dose expected to kill half of the subjects tested. A higher LD50 goes with lower toxicity. Take `O=C(CC(=O)N(c1ccc(F)cc1)c1ccc(F)cc1)NO` [CRL 41131, acide N,N-bis-(4-fluorophényl) carbamoylacétohydroxamique]: the “durée du sommeil barbiturique” value in series [1] is on record as “diminue encore le sommeil; also recorded: diminue la durée du sommeil barbiturique”. For the same compound, in series [2], the “toxicité chez les souris groupées par rapport aux souris isolées” value is recorded as “modérément plus toxique chez les souris groupées”. For the same compound, the LD50 at 48 h in series [3] (DL50, grouped mice) is ~480 mg/kg; in series [3] (DL50, isolated mice), ~300 mg/kg. Also, the LD50 at 72 h was ~370 mg/kg in series [3] (DL50, grouped mice) and ~1100 mg/kg in series [3] (DL50, isolated mice). For the same compound, the LD50 at 24 h was ~700 mg/kg in series [3] (grouped mice) and ~500 mg/kg in series [3] (isolated mice). The selectivity ratio in series [3] (48 h) stood at 2.7; in series [3] (72 h) it was 2.97.
